A word on the GI50: it is the concentration that inhibits growth by half.

Consider 21 molecules from ChEMBL document CHEMBL1201862, “PubChem BioAssay data set” (2004).

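Compound exposure: 48 hours, 5 concentrations, 96-well plates. The concentration for 50% growth inhibition is given as GI50.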 Active and inactive are the calls of the source. Rule as the data show it: active = GI50 up to about 1.1 µM and inactive = higher.

Some test systems named below: DMS-114; LXFL 529; M19-MEL; RXF 631; SNB-78; BT-549; Hs-578T; XF498; 786-0.
Experiment in all cases: DTP human tumour cell line panel, 48 h

On to `O=C(Nc1cccc2ccccc12)Oc1ccccc1C1CCCCC1`, for which the GI50 in the experiment on DMS-114 was 19.9 µM (inactive); in the experiment on LXFL 529, 18.3 µM (inactive); with M19-MEL, 22.3 µM (inactive); with RXF 631, 19.5 µM (inactive); in the experiment with SNB-78, 23.4 µM (inactive).
For the molecule `C=CCNC(=O)CN(CC(=O)OC)C1CCCCC1N(CC(=O)OC)CC(=O)OC` (configuration not stated), the GI50 in the experiment with BT-549 and in the experiment with Hs-578T was > 100 µM (inactive) in each case.
With `Cc1cn(Cc2cn(CC3OC(n4cc(C)c(=O)[nH]c4=O)CC3O)nn2)c(=O)[nH]c1=O` (configuration not stated), the GI50 in the experiment with BT-549 and with Hs-578T was > 100 µM (inactive) each time.
Turning to `CNC(=O)N(C)COC`, the GI50 in the experiment on DMS-114, with LXFL 529, in the experiment on M19-MEL, with SNB-78 and with XF498 was > 100 µM (inactive) throughout.
Turning to `O=c1c2cccnc2oc2c(Cl)cc(-c3nnn[nH]3)cc12`, the GI50 with Hs-578T was > 100 µM (inactive).
Consider `C=C(CN(C)C)C(=O)c1ccc(OC2OC(COC(C)=O)C(OC(C)=O)C(OC(C)=O)C2OC(C)=O)cc1` (configuration not stated), for which the GI50 was 2.24 µM (inactive) in the experiment with 786-0; 2.61 µM (inactive) in the experiment on BT-549; 5.9 µM (inactive) with DMS-114; 19.7 µM (inactive) with Hs-578T; 1.52 µM (inactive) with LXFL 529; 14.3 µM (inactive) in the experiment with RXF 631. Besides, the GI50 was 8.93 µM (inactive) in the experiment on SNB-78 and 1.69 µM (inactive) with XF498.
Take `CC1(C)CC[C@]2(C(=O)O)CC[C@]3(C)C(=CC[C@@H]4[C@@]5(C)CC[C@@H]6OC(C)(C)OC[C@@]6(C)[C@@H]5CC[C@]43C)[C@H]2C1`: in the experiment with 786-0, the GI50 is 10 µM (inactive).
Take `CC(C)(C)OC(=O)NC(Cc1c[nH]cn1)C(=O)N1CCCC1C(N)=O` (configuration not stated): the GI50 with 786-0, with BT-549 and in the experiment on Hs-578T was > 100 µM (inactive) each time.
Take `CO[C@H]1ON=C(c2c(C)cc(C)cc2C)[C@@H]1C1(c2ccccc2)ON=C(c2c(C)cc(C)cc2C)O1` (some centres not stated): the GI50 in the experiment with LXFL 529, in the experiment with M19-MEL and in the experiment with SNB-78 was > 100 µM (inactive) each time.
Take `CC(C)CNC1=NCC(C)S1` (configuration not stated): the GI50 in the experiment on BT-549 and with Hs-578T was > 100 µM (inactive) throughout.
`CC1OC(CO)(n2cnc3c(N)ncnc32)C(O)C1O` (configuration not stated): the GI50 in the experiment with DMS-114, with M19-MEL, in the experiment with SNB-78 and with XF498 was > 100 µM (inactive) each time.
For the molecule `Cn1c(=O)c2nc(N3CCCCC3)cnc2n(C)c1=O`, the GI50 in the experiment with LXFL 529, in the experiment on M19-MEL and in the experiment on XF498 was > 100 µM (inactive) throughout.
Take `C#CC[N+](CCO)(CCO)CCCCCCCCCCCCCCCCCC`: the GI50 in the experiment with DMS-114 is 10.3 µM (inactive); in the experiment with M19-MEL it was 9.16 µM (inactive); with SNB-78, 6.53 µM (inactive); with XF498 it was 4.43 µM (inactive).
With `CCOc1ccc2nc(NC(=O)C(=O)C(C(=O)c3ccccc3F)C3OC(=O)c4ccccc43)sc2c1` (configuration not stated), the GI50 with LXFL 529 is 19.7 µM (inactive); in the experiment on M19-MEL, 12.1 µM (inactive); in the experiment with RXF 631, 14.5 µM (inactive); in the experiment on SNB-78 it was 17.5 µM (inactive); in the experiment on XF498, 24.1 µM (inactive).
Consider `C=C(/C=C/C=C(\C)CCC=C(C)C)[C@@H]1CC[C@]2([C@H](CCCO)/C(=C(/C)C=O)CC[C@]2(C)O)[C@@H]1O`, for which the GI50 is 19.1 µM (inactive) with LXFL 529, > 10 µM (inactive) in the experiment on M19-MEL, 17.7 µM (inactive) in the experiment on SNB-78 and 18.7 µM (inactive) in the experiment with XF498.
For the molecule `CC(C)(C)OC(=O)NC1CCC(C(C)(C)C)CC1` (configuration not stated), the GI50 in the experiment with DMS-114 was 34 µM (inactive); in the experiment with M19-MEL, 31.3 µM (inactive); in the experiment on SNB-78, > 100 µM (inactive); in the experiment with XF498 it was > 52.2 µM (inactive).
As for `CC(=O)O[C@@H]1CN(S(=O)(=O)c2ccc(C)cc2)C[C@@H]1C1CCCCC1`, the GI50 with Hs-578T is 11.5 µM (inactive).
As to `CC(=O)OC1C(O)C(C)OC(OC(=O)C2CCC3C(C2)OC2(CC(OC(=O)/C=C/c4ccccc4)C(C)CO2)C32CO2)C1OC1OC(C)C(O)C(O)C1O` (configuration not stated), the GI50 with DMS-114 was 0.0371 µM (active); in the experiment with M19-MEL, 0.0332 µM (active); with SNB-78, 0.0352 µM (active); in the experiment on XF498, 0.0504 µM (active).
As to `C=CCn1c(=O)c(C(=O)Nc2nc(C34CC5CC(CC(C5)C3)C4)cs2)c(O)c2ccccc21`, the GI50 with 786-0 was 39.8 µM (inactive); in the experiment on BT-549 it was 24.4 µM (inactive); with Hs-578T it was 32.4 µM (inactive).
For `CC(=O)NC1C(O)C(O)C(CO)OC1n1nc(SCc2ccccc2)c(=O)[nH]c1=O` (configuration not stated), the GI50 in the experiment with 786-0, in the experiment on BT-549 and in the experiment with Hs-578T was > 100 µM (inactive) each time.
With `[O-][S+]1[C@H](c2ccccc2)c2c(-c3ccccc3)sc(-c3ccccc3)c2[C@@H]1c1ccccc1` (some centres not stated), the GI50 in the experiment with 786-0 was 29.3 µM (inactive); in the experiment with DMS-114 it was 10.2 µM (inactive); in the experiment with LXFL 529, > 100 µM (inactive); in the experiment with M19-MEL, > 100 µM (inactive); with RXF 631 it was 39 µM (inactive).
